According to PubChem BioAssay (NCI):
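The concentration for 50% growth inhibition is given as GI50. TGI is the concentration that stops growth completely.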

Legend:
Test in all cases: NCI tumour cell line growth inhibition, 384-well format
MDA-MB-435 melanoma = system: MDA-MB-435 melanoma
NCI-H522 lung = system: NCI-H522 lung
OVCAR-8 ovarian = system: OVCAR-8 ovarian
OVCAR-5 ovarian = system: OVCAR-5 ovarian
K-562 leukemia = system: K-562 leukemia
SN12C renal = system: SN12C renal
UACC-257 melanoma = system: UACC-257 melanoma
MALME-3M melanoma = system: MALME-3M melanoma
CAKI-1 renal = system: CAKI-1 renal
CCRF-CEM leukemia = system: CCRF-CEM leukemia
RXF 393 renal = system: RXF 393 renal
OVCAR-3 ovarian = system: OVCAR-3 ovarian
HS 578T breast = system: HS 578T breast
M14 melanoma = system: M14 melanoma
NCI-H322M lung = system: NCI-H322M lung
HCC-2998 colon = system: HCC-2998 colon
HOP-92 NSCLC = system: HOP-92 NSCLC
OVCAR-4 ovarian = system: OVCAR-4 ovarian
HCT-15 colon = system: HCT-15 colon
KM12 colon = system: KM12 colon
NCI-H460 NSCLC = system: NCI-H460 NSCLC
HOP-62 NSCLC = system: HOP-62 NSCLC
TK-10 renal = system: TK-10 renal
786-0 renal = system: 786-0 renal
SR leukemia = system: SR leukemia
MDA-MB-231 breast = system: MDA-MB-231 breast
NCI-H226 lung = system: NCI-H226 lung
SW-620 colon = system: SW-620 colon
SK-MEL-2 melanoma = system: SK-MEL-2 melanoma
SF-268 CNS = system: SF-268 CNS
U251 glioblastoma = system: U251 glioblastoma
EKVX NSCLC = system: EKVX NSCLC
IGROV1 ovarian = system: IGROV1 ovarian
LOX IMVI melanoma = system: LOX IMVI melanoma
SNB-19 CNS = system: SNB-19 CNS
SK-MEL-28 melanoma = system: SK-MEL-28 melanoma
PC-3 prostate = system: PC-3 prostate
RPMI-8226 leukemia = system: RPMI-8226 leukemia
NCI-H23 lung = system: NCI-H23 lung
NCI/ADR-RES ovarian = system: NCI/ADR-RES ovarian
SK-MEL-5 melanoma = system: SK-MEL-5 melanoma
HT29 colon = system: HT29 colon
SF-539 CNS = system: SF-539 CNS
SNB-75 CNS = system: SNB-75 CNS
A498 renal = system: A498 renal
SF-295 CNS = system: SF-295 CNS
T-47D breast = system: T-47D breast
COLO 205 colon = system: COLO 205 colon
MCF7 breast = system: MCF7 breast
UACC-62 melanoma = system: UACC-62 melanoma
MDA-MB-468 breast = system: MDA-MB-468 breast
DU-145 prostate = system: DU-145 prostate
HCT-116 colon = system: HCT-116 colon
ACHN renal = system: ACHN renal
SK-OV-3 ovarian = system: SK-OV-3 ovarian
BT-549 breast = system: BT-549 breast
HL-60(TB) leukemia = system: HL-60(TB) leukemia
MOLT-4 leukemia = system: MOLT-4 leukemia
A549 NSCLC = system: A549 NSCLC

Cc1cc(-c2ncc(CC(=O)Nc3ccc(-c4cnccn4)cn3)cc2C)ccn1
GI50 (MDA-MB-435 melanoma): 38.6 µM | TGI (MDA-MB-435 melanoma): > 100 µM | GI50 (NCI-H522 lung): 31.5 µM | TGI (NCI-H522 lung): > 100 µM | GI50 (OVCAR-8 ovarian): 30.3 µM | TGI (OVCAR-8 ovarian): > 100 µM | GI50 (OVCAR-5 ovarian): > 100 µM | TGI (OVCAR-5 ovarian): > 100 µM | GI50 (K-562 leukemia): 10.4 µM | TGI (K-562 leukemia): > 100 µM | GI50 (SN12C renal): 39.2 µM | TGI (SN12C renal): > 100 µM | GI50 (UACC-257 melanoma): 27.8 µM | TGI (UACC-257 melanoma): > 100 µM | GI50 (MALME-3M melanoma): > 100 µM | TGI (MALME-3M melanoma): > 100 µM | GI50 (CAKI-1 renal): 49.3 µM | TGI (CAKI-1 renal): > 100 µM | GI50 (CCRF-CEM leukemia): 12.2 µM | TGI (CCRF-CEM leukemia): 49 µM | GI50 (RXF 393 renal): 21.3 µM | TGI (RXF 393 renal): > 100 µM | GI50 (OVCAR-3 ovarian): > 86.3 µM | TGI (OVCAR-3 ovarian): > 100 µM | GI50 (HS 578T breast): > 100 µM | TGI (HS 578T breast): > 100 µM | GI50 (M14 melanoma): > 100 µM | TGI (M14 melanoma): > 100 µM | GI50 (NCI-H322M lung): 43 µM | TGI (NCI-H322M lung): > 100 µM | GI50 (HCC-2998 colon): > 88.8 µM | TGI (HCC-2998 colon): > 100 µM | GI50 (HOP-92 NSCLC): > 100 µM | TGI (HOP-92 NSCLC): > 100 µM | GI50 (OVCAR-4 ovarian): 25.5 µM | TGI (OVCAR-4 ovarian): > 100 µM | GI50 (HCT-15 colon): 57.1 µM | TGI (HCT-15 colon): > 100 µM | GI50 (KM12 colon): > 82.9 µM | TGI (KM12 colon): > 100 µM | GI50 (NCI-H460 NSCLC): 28.6 µM | TGI (NCI-H460 NSCLC): > 100 µM | GI50 (HOP-62 NSCLC): 39.7 µM | TGI (HOP-62 NSCLC): > 100 µM | GI50 (TK-10 renal): 65.7 µM | TGI (TK-10 renal): > 100 µM | GI50 ([…]-0 renal): 59.5 µM | TGI (786-0 renal): > 100 µM | GI50 (SR leukemia): 3.81 µM | TGI (SR leukemia): 27.9 µM | GI50 (MDA-MB-231 breast): > 100 µM | TGI (MDA-MB-231 breast): > 100 µM | GI50 (NCI-H226 lung): 61.6 µM | TGI (NCI-H226 lung): > 100 µM | GI50 (SW-620 colon): 88.6 µM | TGI (SW-620 colon): > 100 µM | GI50 (SK-MEL-2 melanoma): 42.6 µM | TGI (SK-MEL-2 melanoma): > 100 µM | GI50 (SF-268 CNS): > 100 µM | TGI (SF-268 CNS): > 100 µM | GI50 (U251 glioblastoma): 48.6 µM | TGI (U251 glioblastoma): > 100 µM | GI50 (EKVX NSCLC): 21.8 µM | TGI (EKVX NSCLC): > 100 µM | GI50 (IGROV1 ovarian): 56.3 µM | TGI (IGROV1 ovarian): > 100 µM | GI50 (LOX IMVI melanoma): 28.4 µM | TGI (LOX IMVI melanoma): > 100 µM | GI50 (SNB-19 CNS): 64 µM | TGI (SNB-19 CNS): > 100 µM | GI50 (SK-MEL-28 melanoma): > 100 µM | TGI (SK-MEL-28 melanoma): > 100 µM | GI50 (PC-3 prostate): 51.1 µM | TGI (PC-3 prostate): > 100 µM | GI50 (RPMI-8226 leukemia): 13.8 µM | TGI (RPMI-8226 leukemia): 34.7 µM | GI50 (NCI-H23 lung): 20.5 µM | TGI (NCI-H23 lung): > 100 µM | GI50 (NCI/ADR-RES ovarian): 14.4 µM | TGI (NCI/ADR-RES ovarian): 47.3 µM | GI50 (SK-MEL-5 melanoma): 11.6 µM | TGI (SK-MEL-5 melanoma): 27.2 µM | GI50 (HT29 colon): 74.5 µM | TGI (HT29 colon): > 100 µM | GI50 (SF-539 CNS): > 57.7 µM | TGI (SF-539 CNS): > 100 µM | GI50 (SNB-75 CNS): > 58.8 µM | TGI (SNB-75 CNS): > 100 µM | GI50 (A498 renal): 68.8 µM | TGI (A498 renal): > 100 µM | GI50 (SF-295 CNS): 49.3 µM | TGI (SF-295 CNS): > 100 µM | GI50 (T-47D breast): 9.51 µM | TGI (T-47D breast): > 52.8 µM | GI50 (COLO 205 colon): > 93.6 µM | TGI (COLO 205 colon): > 100 µM | GI50 (MCF7 breast): 27.3 µM | TGI (MCF7 breast): > 100 µM | GI50 (UACC-62 melanoma): 56.1 µM | TGI (UACC-62 melanoma): > 100 µM | GI50 (MDA-MB-468 breast): 3.43 µM | TGI (MDA-MB-468 breast): 33.1 µM | GI50 (DU-145 prostate): > 100 µM | TGI (DU-145 prostate): > 100 µM | GI50 (HCT-116 colon): 29 µM | TGI (HCT-116 colon): > 100 µM | GI50 (ACHN renal): 64.4 µM | TGI (ACHN renal): > 100 µM | GI50 (SK-OV-3 ovarian): > 66 µM | TGI (SK-OV-3 ovarian): > 100 µM | GI50 (BT-549 breast): 32.5 µM | TGI (BT-549 breast): > 100 µM | GI50 (HL-60(TB) leukemia): 6.52 µM | TGI (HL-60(TB) leukemia): 24.1 µM | GI50 (MOLT-4 leukemia): 12.9 µM | TGI (MOLT-4 leukemia): 26.2 µM | GI50 (A549 NSCLC): > 70.5 µM | TGI (A549 NSCLC): > 100 µM
